Marks after values point to notes of the source that are not given here.
Columns and labels:
[1] = system: OVA-induced allergic asthma mouse model; test: Ovalbumin-induced murine model of allergic asthma, BALF analysis; format: in vivo, Balb/c mice; conditions: Day 28, alicaforsen 1 mM IN 30 μl, dexamethasone 10 mg/kg IP, days 14, 25-27
Procedure: Allergic asthma was modeled in female BALB/c mice by initial sensitization to OVA followed by subsequent intranasal challenge of purified OVA.
Mice were monitored throughout the study for changes in body weight and general signs of sickness. Allergic response to OVA was measured by examining bronchoalveolar lavage fluid (BALF) for inflammatory cell influx and the presence of the inflammatory cytokine IL-13.
On days 0 and 14, each animal was administered an IP injection of 200 μL OVA/Alum emulsion containing 100 μg OVA.
On days 14 and 25-27, each animal was administered an intranasal challenge of 30 μL PBS containing 50 μg OVA.
Treatments were performed on the same days as OVA challenge on Study Days 14 and 25-27 (4 total treatments). Treatments were administered 1 hour following OVA challenge.
10 mg/kg dexamethasone was administered in 200 μL volume/animal (intraperitoneal) on Study Days 14 and 25-27 (4 total treatments).
Bonchoalveolar lavage was performed on euthanised animals. Briefly, an angiocatheter was placed into trachea. 1 mL of PBS was instilled into the lungs and allowed to flow back out into the syringe; the PBS was then instilled and removed again. The resultant Bronchoalveolar lavage fluid (BALF) was centrifuged at 500×g for 5 mins.
The non-cellular portion of the BALF was stored at −80° C. The levels of IL-13 were analyzed by Luminex technology.
The cellular portion of the BALF was used to analyze the cell influx. The total number of leukocytes within the BALF and different cell types present were examined via flow cytometry.
Granulocytes: CD45^+; Non-autofluorescent; Gr-1^+
Eosinophils: CD45^+; Non-autofluorescent; Gr-1^+; Siglec F^+

TLR9 [2] = target: T1, TLR9 (Homo sapiens, UniProt Q9NR96); test: TLR9 activation (agonist) screen, TLR9/NF-kB luciferase reporter HEK 293 cell line; format: cell-based; set-up: host or cells: HEK 293 (TLR9/NF-kB luciferase reporter line); conditions: up to concentrations as high as 100 uM
T1 sequence (Q9NR96 26-1032): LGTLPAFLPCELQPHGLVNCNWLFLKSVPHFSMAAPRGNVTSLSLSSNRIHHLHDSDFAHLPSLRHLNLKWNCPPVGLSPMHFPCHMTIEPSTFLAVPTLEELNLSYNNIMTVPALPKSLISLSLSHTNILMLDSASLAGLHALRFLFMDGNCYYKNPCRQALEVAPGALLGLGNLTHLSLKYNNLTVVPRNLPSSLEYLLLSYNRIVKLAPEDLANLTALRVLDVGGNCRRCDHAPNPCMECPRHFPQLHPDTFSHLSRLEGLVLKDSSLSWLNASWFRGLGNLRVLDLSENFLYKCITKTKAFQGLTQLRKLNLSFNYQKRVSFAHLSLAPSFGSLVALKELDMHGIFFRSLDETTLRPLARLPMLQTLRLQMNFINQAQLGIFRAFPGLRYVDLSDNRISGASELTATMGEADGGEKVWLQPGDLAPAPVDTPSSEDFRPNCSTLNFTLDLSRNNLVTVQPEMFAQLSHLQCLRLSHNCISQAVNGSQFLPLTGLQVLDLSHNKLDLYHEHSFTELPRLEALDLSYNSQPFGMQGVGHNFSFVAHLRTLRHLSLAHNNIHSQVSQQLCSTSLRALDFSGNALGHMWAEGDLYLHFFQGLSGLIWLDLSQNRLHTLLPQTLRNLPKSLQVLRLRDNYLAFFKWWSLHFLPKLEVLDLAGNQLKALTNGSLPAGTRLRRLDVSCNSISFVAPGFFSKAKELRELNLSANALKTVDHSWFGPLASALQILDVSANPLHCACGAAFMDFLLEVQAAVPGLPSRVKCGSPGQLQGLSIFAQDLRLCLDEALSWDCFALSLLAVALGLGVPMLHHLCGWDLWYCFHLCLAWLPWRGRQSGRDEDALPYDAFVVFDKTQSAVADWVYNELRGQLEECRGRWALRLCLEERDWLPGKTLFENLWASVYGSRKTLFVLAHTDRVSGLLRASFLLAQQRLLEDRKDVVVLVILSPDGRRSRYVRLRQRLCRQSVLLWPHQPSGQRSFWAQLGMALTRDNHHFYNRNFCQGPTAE
Procedure: […] Briefly, the TLR9/NF-kB luciferase reporter HEK 293 cell line (Abeomics, San Diego, Calif.) was plated in 96-well white solid plates at 5×10^4 cells per well for 16 h. […] Luciferase activity was then measured and analyzed.

TLR9 [3] = target: T1, TLR9; test: TLR-9 antagonist activity with E. coli genomic DNA as the activator; format: cell-based
TLR9 [4] = target: T1, TLR9; test: Effect of heat, Na+, Mg++ and spermine pre-treatment on TLR-9 antagonist activity; format: cell-based; conditions: pre-treated with 5 mM spermine, heated to 90° C. and cooled; 1.0 uM ODN2006
Procedure: The samples and conditions of these tests are diagramed in FIG. 9.
One sample remained at room temperature while the remaining samples were heated to 90° C. for 3 min and then allowed to cool to room temperature. The samples were then diluted to the indicated concentrations and incubated with the target cells for 1 hr, prior to the addition of 1.0 uM ODN2006 to stimulate TLR-9.

TLR9 [5] = target: T1, TLR9; test: Inhibition of TLR9-mediated NF-kB induction activated by CpG ODN2006, luciferase reporter HEK 293 cell line; format: cell-based; set-up: host or cells: HEK 293 (TLR9/NF-kB luciferase reporter line)
Procedure: Briefly, the TLR9/NF-kB luciferase reporter HEK 293 cell line was plated in 96-well white solid plates at 5×10^4 cells per well for 16 h. […] Cells were then treated with 20 ug/ml of CpG ODN2006 to activate TLR9. After 16 h, luciferase activity was measured and analyzed.

dry eye murine model = test: Scopolamine dry eye murine model, corneal fluorescein staining and clinical signs; format: in vivo, Mouse C57BL/6N; conditions: for Corneal fluorescein staining score (mean ± SD): one dose per day, topical both eyes
Procedure: In a model of mice, the application of transdermal scopolamine patches to the mid-tail is used to reduce aqueous tear production and thus mimic lacrimal gland insufficiency. The function of scopolamine is to induce a pharmacologic blockade of cholinergic receptors in the lacrimal gland and therefore to decrease aqueous production. The desiccation is amplified by adding environmental stress. Animals are exposed to a low-humidity environment and constant airflow.
Mice were treated with transdermal scopolamine administration (0.5 mg/72 h; Scopoderm TTS®). The transdermal scopolamine patch was wrapped near the tail base of the mouse, secured with cellophane tape. Patches were reapplied every 48 hours.
Mice were randomized into 4 groups of 10 animals. The study was divided into 2 experimental sets with 5 animals of each group represented.
All test items, control items and comparator item were instilled in both eyes (5 μL per administration), using a micropipette.
Tear production and corneal defects were assessed at baseline, on Days 3, 6 and 10 using phenol red thread (PRT) and corneal fluorescence staining (CFS), respectively, for each animal of the 4 groups.
Each day, the general clinical signs and the appearance of all animals was observed.
At the different time points the measurement was performed before administration on Day 3 and at least one hour after the second treatment for the other days of the study. The eyes of the animals from all groups were examined by slit-lamp observation using blue light after 0.5% fluorescein eye drop instillation (0.5 μL). Punctuate staining was recorded with the standardized National Eye Institute (NEI) grading system giving a 0-3 score to each of the 5 areas in which the corneas were divided.

[6] = Circular Dichroism spectroscopy, thermal stability of secondary structure; format: physicochemical
Source text: SEQ ID NO: 1 was therefore subjected to Circular Dichroism (CD) spectroscopy to gather information about the possible secondary structure. CD of DNA can be utilized to detect all 3 major forms of duplex structure (B, A and Z) and is sensitive to conditions that disrupt the structure such a heating. Of interest was the stability of any secondary structure detected at or above physiologic temperatures.
Additional thermal denaturation of the putative duplex was also studied in the presence of Na^+ at concentrations of 50 mM and 150 mM. Sodium fluoride was used as Cl^− ions interfere with the CD spectra in this UV region.
Additional experiments were conducted to test the influence of Mg^++ and polyamines on the stability of the structure.

Compound | BALF IL-13, Mean [1] | Total CD45 cells in BALF, Mean [1] | Eosinophil (Frequency of CD45+) in BALF, Mean ([1]; in % (unit assumed)) | Granulocyte (Frequency of CD45+) in BALF, Mean ([1]; in % (unit assumed)) | agonist activity at TLR-9 (TLR9 [2]) | antagonism of TLR-9 activation by E. coli genomic DNA (TLR9 [3]) | TLR-9 inhibitory activity of spermine-treated samples (TLR9 [4]) | TLR-9 antagonism (TLR9 [5]; ODN2006 as activator) | concentration needed for TLR-9 antagonism relative to inhibition of ICAM-1 expression (TLR9 [5]; comparative dose responses, FIG. 3) | tolerability of multiple topical administrations (dry eye murine model; 1 mM and 10 mM, topical ocular) | Corneal fluorescein staining score (mean ± SD) (dry eye murine model; Day 6, 1 mM) | Corneal fluorescein staining score (mean ± SD) (dry eye murine model; Day 6, 10 mM) | Corneal fluorescein staining score (mean ± SD) (dry eye murine model; Day 10, 1 mM, listed as ALICAFORSEN) | Corneal fluorescein staining score (mean ± SD) (dry eye murine model; Day 10, 1 mM, listed as alicaforsen) | Corneal fluorescein staining score (mean ± SD) (dry eye murine model; Day 10, 10 mM, listed as ALICAFORSEN) | Corneal fluorescein staining score (mean ± SD) (dry eye murine model; Day 10, 10 mM, listed as alicaforsen) | effect of spermine on secondary structure ([6]; 5 mM spermine in the presence of 50 mM Na+) | structure retained (190 nm peak intensity) ([6]; 50 and 150 mM sodium, 40° C.) | loss of signal strength of 190 nm CD band ([6]; ddH20, heating to 80° C.) [%]
C[C@@H]1C[C@H]2[C@@H]3CCC4=CC(=O)C=C[C@]4(C)[C@@]3(F)[C@@H](O)C[C@]2(C)[C@@]1(O)C(=O)CO [Dexamethasone] | 13.2** pg/ml | 236574 | 46.60** | 51.88** |  |  |  |  |  |  |  |  |  |  |  |  |  |  | 
alicaforsen (GCCCAAGCTGGCATCCGTCA; chemistry not given here; listed as Homo sapiens) [SEQ ID NO: 1] |  |  |  |  | devoid of agonist activity | remained antagonistic to activation of TLR-9 | some activity is still observed | antagonist of TLR-9 | requires higher concentrations than the inhibition of ICAM-1 expression | clinically well tolerated | 10.5 ± 2.6 | 10.8 ± 2.0 | 9.3 ± 3.1 | lower than the Vehicle group | 9.7 ± 2.2 | lower than the Vehicle group | completely abolished the secondary structure | at least 50% | > 85

— patent publication US20190388459A1, “NEW THERAPEUTIC USES” (ATLANTIC PHARMACEUTICALS (HOLDINGS) LTD, priority 2017, published 2019)
